Reference: patent US12077503B2, “Substituted cyclic amides and their use as herbicides” (FMC CORPORATION, priority 2015, dated 2024)

How the values were obtained:
Assay type in all cases: in vivo
[1] = test system: blackgrass (Alopecurus myosuroides); assay: Test A postemergence; details: Alopecurus myosuroides, post-emergence, 240 h, read-out: Plant response rating, Blackgrass; for pest or weed control at 125 g/ha: 125 g ai/ha, Postemergence, visual injury after approximately 10 d, 0 to 100 scale where 0 is no effect and 100 is complete control; for pest or weed control at 500 g/ha: 500 g ai/ha, postemergence, visual injury, 0 to 100 scale (0 no effect, 100 complete control), approx. 10 d
Summary of the method: (§1)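 In a loam soil and sand blend, planted seeds got a preemergence directed soil spray, and young plants at the one- to two-leaf stage, 2–10 cm high, got a postemergence application; ~10 d greenhouse hold; injury rated visually, 0 = none, 100 = complete control.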

corn (Zea mays) = assay: Test A postemergence; details: Zea mays, post-emergence, 240 h; for Corn plant response rating (crop injury, 0 = no effect, 100 = complete kill) at 125 g/ha: 125 g ai/ha, Postemergence, visual injury after approximately 10 d, 0 to 100 scale where 0 is no effect and 100 is complete control; for Corn plant response rating (crop injury, 0 = no effect, 100 = complete kill) at 500 g/ha: 500 g ai/ha, postemergence, visual injury, 0 to 100 scale (0 no effect, 100 complete control), approx. 10 d
Summary of the method: as §1

[2] = test system: wheat (Triticum aestivum); assay: Test A postemergence; details: Triticum aestivum, post-emergence, 240 h, postemergence, approx. 10 d; for plant injury at 125 g/ha: 125 g ai/ha, visual injury on 0 to 100 scale (0 no effect, 100 complete control), read-out: Wheat plant response rating; for plant injury at 500 g/ha: 500 g ai/ha, visual injury, 0 to 100 scale (0 no effect, 100 complete control), read-out: Plant response rating, Wheat
Summary of the method: as §1

[3] = test system: Galium (catchweed bedstraw, Galium aparine); assay: Test A postemergence; details: Galium, post-emergence, 240 h, postemergence, approx. 10 d; for pest or weed control at 125 g/ha: 125 g ai/ha, visual injury on 0 to 100 scale (0 no effect, 100 complete control), read-out: Galium plant response rating; for pest or weed control at 500 g/ha: 500 g ai/ha, visual injury, 0 to 100 scale (0 no effect, 100 complete control), read-out: Plant response rating, Galium
Summary of the method: as §1

[4] = test system: barnyardgrass (Echinochloa crus-galli); assay: Test A postemergence; details: Echinochloa crus-galli, post-emergence, 240 h, read-out: Plant response rating, Barnyardgrass; for pest or weed control at 125 g/ha: 125 g ai/ha, Postemergence, visual injury after approximately 10 d, 0 to 100 scale where 0 is no effect and 100 is complete control; for pest or weed control at 500 g/ha: 500 g ai/ha, postemergence, visual injury, 0 to 100 scale (0 no effect, 100 complete control), approx. 10 d
Summary of the method: as §1

[5] = test system: pigweed (Amaranthus retroflexus); assay: Test A postemergence; details: Amaranthus retroflexus, post-emergence, 240 h, postemergence, approx. 10 d; for pest or weed control at 125 g/ha: 125 g ai/ha, visual injury on 0 to 100 scale (0 no effect, 100 complete control), read-out: Pigweed plant response rating; for pest or weed control at 500 g/ha: 500 g ai/ha, visual injury, 0 to 100 scale (0 no effect, 100 complete control), read-out: Plant response rating, Pigweed
Summary of the method: as §1

[6] = test system: ryegrass, Italian (Italian ryegrass, Lolium multiflorum); assay: Test A postemergence; details: Lolium multiflorum, post-emergence, 240 h, postemergence, approx. 10 d; for pest or weed control at 125 g/ha: 125 g ai/ha, visual injury on 0 to 100 scale (0 no effect, 100 complete control), read-out: Ryegrass, Italian plant response rating; for pest or weed control at 500 g/ha: 500 g ai/ha, visual injury, 0 to 100 scale (0 no effect, 100 complete control), read-out: Plant response rating, Ryegrass, Italian
Summary of the method: as §1

Kochia (Kochia scoparia) [7] = assay: Test A postemergence; details: Bassia scoparia, post-emergence, 240 h, postemergence, approx. 10 d; for pest or weed control at 125 g/ha: 125 g ai/ha, visual injury on 0 to 100 scale (0 no effect, 100 complete control), read-out: Kochia plant response rating; for pest or weed control at 500 g/ha: 500 g ai/ha, visual injury, 0 to 100 scale (0 no effect, 100 complete control), read-out: Plant response rating, Kochia
Summary of the method: as §1

[8] = test system: giant foxtail (Setaria faberii); assay: Test A postemergence; details: Setaria faberi, post-emergence, 240 h, postemergence, approx. 10 d; for pest or weed control at 125 g/ha: 125 g ai/ha, visual injury on 0 to 100 scale (0 no effect, 100 complete control), read-out: Foxtail, Giant plant response rating; for pest or weed control at 500 g/ha: 500 g ai/ha, visual injury, 0 to 100 scale (0 no effect, 100 complete control), read-out: Plant response rating, Foxtail, Giant
Summary of the method: as §1

[9] = test system: barnyardgrass (Echinochloa crus-galli); assay: Test A preemergence; details: Echinochloa crus-galli, pre-emergence, 240 h; for pest or weed control at 125 g/ha: 125 g ai/ha, Preemergence, visual injury rating after approximately 10 d, read-out: Barnyardgrass plant response rating (0 to 100 scale, 0 is no effect, 100 is complete control); for pest or weed control at 500 g/ha: 500 g ai/ha, preemergence, visual injury rating about 10 d after treatment, 0 to 100 scale (0 no effect, 100 complete control), read-out: Barnyardgrass plant response rating
Summary of the method: as §1

[10] = test system: pigweed (Amaranthus retroflexus); assay: Test A preemergence; details: Amaranthus retroflexus, pre-emergence, 240 h; for pest or weed control at 125 g/ha: 125 g ai/ha, Preemergence, visual injury rating after approximately 10 d, read-out: Pigweed plant response rating (0 to 100 scale, 0 is no effect, 100 is complete control); for pest or weed control at 500 g/ha: 500 g ai/ha, preemergence, visual injury rating about 10 d after treatment, 0 to 100 scale (0 no effect, 100 complete control), read-out: Pigweed plant response rating
[11] = test system: ragweed (common ragweed, Ambrosia elatior); assay: Test A preemergence; details: Ambrosia artemisiifolia, pre-emergence, 240 h; for pest or weed control at 125 g/ha: 125 g ai/ha, Preemergence, visual injury rating after approximately 10 d, read-out: Ragweed plant response rating (0 to 100 scale, 0 is no effect, 100 is complete control); for pest or weed control at 500 g/ha: 500 g ai/ha, preemergence, visual injury rating about 10 d after treatment, 0 to 100 scale (0 no effect, 100 complete control), read-out: Ragweed plant response rating
Summary of the method: as §1

[12] = test system: ryegrass, Italian (Italian ryegrass, Lolium multiflorum); assay: Test A preemergence; details: Lolium multiflorum, pre-emergence, 240 h; for pest or weed control at 500 g/ha: 500 g ai/ha, preemergence, visual injury rating about 10 d after treatment, 0 to 100 scale (0 no effect, 100 complete control), read-out: Ryegrass, Italian plant response rating; for pest or weed control at 125 g/ha: 125 g ai/ha, Preemergence, visual injury rating after approximately 10 d, read-out: Ryegrass, Italian plant response rating (0 to 100 scale, 0 is no effect, 100 is complete control)
Summary of the method: as §1

Kochia (Kochia scoparia) [13] = assay: Test A preemergence; details: Bassia scoparia, pre-emergence, 240 h; for pest or weed control at 125 g/ha: 125 g ai/ha, Preemergence, visual injury rating after approximately 10 d, read-out: Kochia plant response rating (0 to 100 scale, 0 is no effect, 100 is complete control); for pest or weed control at 500 g/ha: 500 g ai/ha, preemergence, visual injury rating about 10 d after treatment, 0 to 100 scale (0 no effect, 100 complete control), read-out: Kochia plant response rating
Summary of the method: as §1

[14] = test system: giant foxtail (Setaria faberii); assay: Test A preemergence; details: Setaria faberi, pre-emergence, 240 h; for pest or weed control at 125 g/ha: 125 g ai/ha, Preemergence, visual injury rating after approximately 10 d, read-out: Foxtail, Giant plant response rating (0 to 100 scale, 0 is no effect, 100 is complete control); for pest or weed control at 500 g/ha: 500 g ai/ha, preemergence, visual injury rating about 10 d after treatment, 0 to 100 scale (0 no effect, 100 complete control), read-out: Foxtail, Giant plant response rating
Summary of the method: as §1

SMILES	pest or weed control at 125 g/ha [1] [%]	pest or weed control at 500 g/ha [1] [%]	Corn plant response rating (crop injury, 0 = no effect, 100 = complete kill) at 125 g/ha (corn (Zea mays)) [%]	Corn plant response rating (crop injury, 0 = no effect, 100 = complete kill) at 500 g/ha (corn (Zea mays)) [%]	plant injury at 125 g/ha [2] [%]	pest or weed control at 125 g/ha [3] [%]	pest or weed control at 500 g/ha [3] [%]	pest or weed control at 125 g/ha [4] [%]	pest or weed control at 500 g/ha [4] [%]	pest or weed control at 125 g/ha [5] [%]	pest or weed control at 125 g/ha [6] [%]	pest or weed control at 125 g/ha (Kochia (Kochia scoparia) [7]) [%]	pest or weed control at 500 g/ha (Kochia (Kochia scoparia) [7]) [%]	pest or weed control at 125 g/ha [8] [%]	pest or weed control at 500 g/ha [8] [%]	pest or weed control at 125 g/ha [9] [%]	pest or weed control at 500 g/ha [9] [%]	pest or weed control at 125 g/ha [10] [%]	pest or weed control at 500 g/ha [10] [%]	pest or weed control at 500 g/ha [11] [%]	further results
Cc1ccc([C@H]2CNC(=O)[C@@H]2C(=O)Nc2cccc(F)c2C)cc1C [Compound 1035]	40	60	50	60	20	20	50	90	90	0	40	0	20	50	90	90	90	0	0	70	plant injury at 500 g/ha [2]: 70%; pest or weed control at 500 g/ha [5]: 0%; pest or weed control at 500 g/ha [6]: 60%; pest or weed control at 125 g/ha [11]: 20%; pest or weed control at 500 g/ha [12]: 70%; pest or weed control at 125 g/ha (Kochia (Kochia scoparia) [13]): 0%; pest or weed control at 500 g/ha (Kochia (Kochia scoparia) [13]): 50%; pest or weed control at 125 g/ha [14]: 90%; pest or weed control at 500 g/ha [14]: 90%
CSc1ccccc1NC(=O)[C@H]1C(=O)NC[C@@H]1c1ccc(C)c(C)c1 [Compound 1036]	0	0	0	20	0	20	30	70	90	0	0	0	0	0	60	90	90	0	0	50	plant injury at 500 g/ha [2]: 20%; pest or weed control at 500 g/ha [5]: 0%; pest or weed control at 500 g/ha [6]: 60%; pest or weed control at 125 g/ha [11]: 0%; pest or weed control at 125 g/ha [12]: 20%; pest or weed control at 500 g/ha [12]: 20%; pest or weed control at 125 g/ha (Kochia (Kochia scoparia) [13]): 70%; pest or weed control at 500 g/ha (Kochia (Kochia scoparia) [13]): 90%; pest or weed control at 125 g/ha [14]: 70%; pest or weed control at 500 g/ha [14]: 90%
Cc1cc([C@H]2CNC(=O)[C@@H]2C(=O)Nc2cccc(F)c2F)ccc1C(F)(F)F [Compound 1040]	60	70	60	80	20	50	70	80	90	40	30	60	70	80	90	90	90	30	40	80	pest or weed control at 125 g/ha [12]: 50%; pest or weed control at 500 g/ha [12]: 50%; pest or weed control at 125 g/ha (Kochia (Kochia scoparia) [13]): 50%; pest or weed control at 500 g/ha (Kochia (Kochia scoparia) [13]): 80%; pest or weed control at 125 g/ha [14]: 90%; pest or weed control at 500 g/ha [14]: 90%
